Test results from patent EP4151646A1, “5-FLUOROURACIL DERIVATIVES AS PRODRUGS FOR CANCER TREATMENT” (Universität Hamburg, priority 2021, dated 2023).

Columns and labels:
Format in all cases: cell-based
[1] = system: SW620; assay: XTT cytotoxicity test on colon carcinoma cell line, wider concentration range; details: 30 µmol in triple dilution up to 0.014 µmol
Description: Further investigations were performed in relation these two substances (JW-1 and JW-4). The same procedure as in the first experiments was used, but with a wider concentration range in order to examine the onset of cytotoxicity and the therapeutic range more closely. Thus, JW-1, JW-4 and 5-FU were applied to the cells (colon carcinoma cell line SW620) in the concentrations of 30 µmol in triple dilution up to 0.014 µmol and then examined according to the same scheme. […] A major advantage is, however, their increased therapeutic range. The cytotoxicity threshold is much lower than that of 5-FU. In the case of 5-FU, first cytotoxic effects can be detected between 1 and 3 µmol. In comparison, the threshold for JW-1 and JW-4 is below 1 µmol.
(§1) The experiments consisted of three steps. On the first day, the cells were planted on 96-well-plates and left for growing and adhering for 24 hours. On the second day, the substances were applied in the known concentrations, diluted in the cell-line specific medium. After an incubation period of 72 hours, XTT-colouring (see, e.g., Roehm NW, Rodgers GH, Hatfield SM, Glasebrook AL, 1991, An improved colorimetric assay for cell proliferation and viability utilizing the tetrazolium salt XTT, J Immunol Methods, 142(2):257-65. doi: 10.1016/0022-1759(91)90114-u) was applied and the absorbance was measured after 6 hours. Table 2. Residues RA1 and RB1 of three further 5-Fluorouracil nucleoside triphosphate prodrugs according to the invention, being asymmetrically substituted with residues RA1 and RB1.

[2] = system: MDA-MB231; assay: XTT cytotoxicity test on triple-negative breast carcinoma cell line; details: 25, 12.5 and 6.25 µmol/l, compared with 5-FU, 72 hours incubation
Source text: In a first approach, six different JW-substances (JW-1, JW-2, JW-3, JW-4, JW-5, JW-6) having the general structure according to formula 1b above with acyloxybenzyl-groups of different lengths (from 8 to 13 carbon atoms) in three different concentrations (25, 12.5 and 6.25 µmol/l) were investigated. As a comparison, 5-FU was used in the same concentrations. The investigated cell line was a triple-negative breast carcinoma (MDA-MB231), see Fig. 2. The treatment of Triple Negative Breast Cancer is not well standardised, however, one of the treatment options includes 5-FU (Yin L, Duan JJ, Bian XW, Yu SC. Triple-negative breast cancer molecular subtyping and treatment progress. Breast Cancer Res. 2020 Jun 9;22(1):61. doi: 10.1186/s13058-020-01296-5. PMID: 32517735; PMCID: PMC7285581). […] Table 1. Residues RA1 and RB1 of six different symmetrically masked 5-Fluorouracil nucleoside triphosphate prodrugs according to the invention.
The experiments consisted of three steps. […] After an incubation period of 72 hours, XTT-colouring (see, e.g., Roehm NW, Rodgers GH, Hatfield SM, Glasebrook AL, 1991, An improved colorimetric assay for cell proliferation and viability utilizing the tetrazolium salt XTT, J Immunol Methods, 142(2):257-65. doi: 10.1016/0022-1759(91)90114-u) was applied and the absorbance was measured after 6 hours. […]

[3] = system: HT29; assay: XTT cell viability test on colon cancer cell line HT29; details: 72 hours incubation
Source text: Three further JW-substances (JW-7, JW-8, JW-9) having the general structure according to formula 1b above with acyloxybenzyl-groups of different lengths (from 4 to 17 carbon atoms), but being asymmetrically substituted (i.e. having different groups R^A1 and R^B1), in four different concentrations (1.11, 3.33, 10 and 30 µmol/l) were investigated. As a comparison, 5-FU was used in the same concentrations. The investigated cell lines were the colon cancer cell lines CaCo2 and HT29.
as §1

IC50 ([3]; 1.11, 3.33, 10 and 30 µmol/l) [µM] | Compound | IC-50 values compared with 5-FU [1] | cytotoxicity threshold (first cytotoxic effects) [1] | cytotoxic effects [2] | other results
1 to 2 | C10/C12-TriPPPro [JW-09] |  |  |  | 
2 | C7/C9-TriPPPro [JW-08] |  |  |  | 
4 to 5 | C4/C17-TriPPPro [JW-07] |  |  |  | 

The next lines start with the compound.

Compound | IC50 ([3]; 1.11, 3.33, 10 and 30 µmol/l) [µM] | IC-50 values compared with 5-FU [1] | cytotoxicity threshold (first cytotoxic effects) [1] | cytotoxic effects [2] | other results
C11-TriPPPro [JW-4] |  | at least as low as 5-FU | below 1 µmol | significantly stronger cytotoxicity | 
C8-TriPPPro [JW-1] |  | at least as low as 5-FU | below 1 µmol | significantly stronger cytotoxicity | 
O=c1[nH]cc(F)c(=O)[nH]1 [Compound 5-FU, 5-fluorouracil] |  |  |  |  | IC50 ([3]; Homo sapiens, HT-29, 1.11, 3.33, 10 and 30 µmol/l): ~15 µM
